Values of other authors as cited in patent publication US20150306063A1, “COMPOSITION AND METHOD FOR VAGINAL THERAPY” (priority 2014, published 2015).

Conditions: elderly patients, including patients older than 65 years of age

In the case of `COc1ccccc1OCC(O)COC(N)=O` (stereo not shown) [Methocarbamol, 3-(2-methoxyphenoxy)-1,2-propanediol 1-carbamate], the “half-life in the elderly as compared with a younger population” value is given as “only slightly prolonged”.
